The NIST ThermoML archive (doi:10.1016/j.jct.2005.04.015)

Test: excess molar enthalpy (molar enthalpy of mixing); xn = mol fraction of the nth substance listed
Conditions: Liquid, Flow calorimetry

CCOC=O [ethyl methanoate] + CCCCO
excess molar enthalpy [kcal/mol]
Conditions	298.15 K	308.15 K
5000 kPa, x1 = 0.0499	0.0919	–
5000 kPa, x1 = 0.1005	0.17	–
5000 kPa, x1 = 0.1488	0.232	–
5000 kPa, x1 = 0.2008	0.285	–
5000 kPa, x1 = 0.2505	0.325	–
5000 kPa, x1 = 0.3009	0.355	–
5000 kPa, x1 = 0.3488	0.377	–
5000 kPa, x1 = 0.4006	0.393	–
5000 kPa, x1 = 0.4498	0.401	–
5000 kPa, x1 = 0.4997	0.399	–
5000 kPa, x1 = 0.6015	0.376	–
5000 kPa, x1 = 0.65	0.356	–
5000 kPa, x1 = 0.6991	0.33	–
5000 kPa, x1 = 0.7489	0.294	–
5000 kPa, x1 = 0.7993	0.252	–
5000 kPa, x1 = 0.8503	0.202	–
5000 kPa, x1 = 0.8983	0.148	–
5000 kPa, x1 = 0.9507	0.073	–
10000 kPa, x1 = 0.0497	0.0909	–
10000 kPa, x1 = 0.1002	0.169	–
10000 kPa, x1 = 0.1501	–	0.259
10000 kPa, x1 = 0.1514	0.233	–
10000 kPa, x1 = 0.1999	–	0.314
10000 kPa, x1 = 0.2003	0.281	–
10000 kPa, x1 = 0.2499	0.319	–
10000 kPa, x1 = 0.2504	–	0.359
10000 kPa, x1 = 0.2989	–	0.39
10000 kPa, x1 = 0.3002	0.348	–
10000 kPa, x1 = 0.3508	–	0.416
10000 kPa, x1 = 0.3513	0.372	–
10000 kPa, x1 = 0.3998	0.385	–
10000 kPa, x1 = 0.4007	–	0.431
10000 kPa, x1 = 0.449	0.393	–
10000 kPa, x1 = 0.4514	–	0.438
10000 kPa, x1 = 0.4989	0.393	–
10000 kPa, x1 = 0.4998	–	0.437
10000 kPa, x1 = 0.549	–	0.429
10000 kPa, x1 = 0.5494	0.385	–
10000 kPa, x1 = 0.5988	–	0.414
10000 kPa, x1 = 0.6007	0.371	–
10000 kPa, x1 = 0.6492	0.35	0.391
10000 kPa, x1 = 0.6984	0.324	–
10000 kPa, x1 = 0.7004	–	0.361
10000 kPa, x1 = 0.7482	0.288	–
10000 kPa, x1 = 0.7493	–	0.326
10000 kPa, x1 = 0.7987	0.244	0.281
10000 kPa, x1 = 0.8488	–	0.228
10000 kPa, x1 = 0.8499	0.193	–
10000 kPa, x1 = 0.8996	–	0.165
10000 kPa, x1 = 0.9018	0.134	–
10000 kPa, x1 = 0.9506	0.0751	–

CCOC=O [ethyl methanoate] + CCCCCO
298.15 K
Conditions	excess molar enthalpy [kcal/mol]
5000 kPa, x1 = 0.0502	0.0619
5000 kPa, x1 = 0.0995	0.145
5000 kPa, x1 = 0.1505	0.22
5000 kPa, x1 = 0.2006	0.279
5000 kPa, x1 = 0.2494	0.324
5000 kPa, x1 = 0.2998	0.361
5000 kPa, x1 = 0.3487	0.388
5000 kPa, x1 = 0.3992	0.404
5000 kPa, x1 = 0.4514	0.409
5000 kPa, x1 = 0.4984	0.41
5000 kPa, x1 = 0.5503	0.406
5000 kPa, x1 = 0.6002	0.392
5000 kPa, x1 = 0.6516	0.372
5000 kPa, x1 = 0.7007	0.346
5000 kPa, x1 = 0.7513	0.312
5000 kPa, x1 = 0.7992	0.269
5000 kPa, x1 = 0.8484	0.215
5000 kPa, x1 = 0.899	0.151
5000 kPa, x1 = 0.951	0.0755
10000 kPa, x1 = 0.05	0.0947
10000 kPa, x1 = 0.0992	0.177
10000 kPa, x1 = 0.1501	0.247
10000 kPa, x1 = 0.2	0.303
10000 kPa, x1 = 0.2487	0.345
10000 kPa, x1 = 0.2991	0.376
10000 kPa, x1 = 0.3511	0.403
10000 kPa, x1 = 0.3984	0.418
10000 kPa, x1 = 0.4505	0.426
10000 kPa, x1 = 0.501	0.426
10000 kPa, x1 = 0.5495	0.419
10000 kPa, x1 = 0.5994	0.406
10000 kPa, x1 = 0.6508	0.382
10000 kPa, x1 = 0.7	0.353
10000 kPa, x1 = 0.7506	0.311
10000 kPa, x1 = 0.7987	0.268
10000 kPa, x1 = 0.848	0.217
10000 kPa, x1 = 0.8987	0.154
10000 kPa, x1 = 0.9509	0.0804

CCOC=O [ethyl methanoate] + CC(C)O
Conditions	excess molar enthalpy [kcal/mol]
298.15 K, 5000 kPa, x1 = 0.0498	0.0806
298.15 K, 5000 kPa, x1 = 0.0993	0.158
298.15 K, 5000 kPa, x1 = 0.1485	0.221
298.15 K, 5000 kPa, x1 = 0.2008	0.276
298.15 K, 5000 kPa, x1 = 0.2493	0.317
298.15 K, 5000 kPa, x1 = 0.3009	0.35
298.15 K, 5000 kPa, x1 = 0.3488	0.373
298.15 K, 5000 kPa, x1 = 0.3997	0.391
298.15 K, 5000 kPa, x1 = 0.4503	0.4
298.15 K, 5000 kPa, x1 = 0.5005	0.403
298.15 K, 5000 kPa, x1 = 0.5504	0.398
298.15 K, 5000 kPa, x1 = 0.5999	0.389
298.15 K, 5000 kPa, x1 = 0.6492	0.372
298.15 K, 5000 kPa, x1 = 0.7013	0.344
298.15 K, 5000 kPa, x1 = 0.7498	0.311
298.15 K, 5000 kPa, x1 = 0.8012	0.267
298.15 K, 5000 kPa, x1 = 0.8997	0.156
298.15 K, 5000 kPa, x1 = 0.95	0.0857
298.15 K, 10000 kPa, x1 = 0.0497	0.0741
298.15 K, 10000 kPa, x1 = 0.099	0.152
298.15 K, 10000 kPa, x1 = 0.1516	0.218
298.15 K, 10000 kPa, x1 = 0.2003	0.271
298.15 K, 10000 kPa, x1 = 0.2487	0.311
298.15 K, 10000 kPa, x1 = 0.3002	0.345
298.15 K, 10000 kPa, x1 = 0.3514	0.368
298.15 K, 10000 kPa, x1 = 0.3989	0.383
298.15 K, 10000 kPa, x1 = 0.4495	0.393
298.15 K, 10000 kPa, x1 = 0.4997	0.396
298.15 K, 10000 kPa, x1 = 0.5496	0.393
298.15 K, 10000 kPa, x1 = 0.5991	0.384
298.15 K, 10000 kPa, x1 = 0.6484	0.368
298.15 K, 10000 kPa, x1 = 0.7006	0.34
298.15 K, 10000 kPa, x1 = 0.7492	0.31
298.15 K, 10000 kPa, x1 = 0.8006	0.265
298.15 K, 10000 kPa, x1 = 0.8994	0.157
298.15 K, 10000 kPa, x1 = 0.9499	0.0864
308.15 K, 10000 kPa, x1 = 0.0487	0.0511
308.15 K, 10000 kPa, x1 = 0.1	0.139
308.15 K, 10000 kPa, x1 = 0.1511	0.211
308.15 K, 10000 kPa, x1 = 0.1988	0.267
308.15 K, 10000 kPa, x1 = 0.2492	0.313
308.15 K, 10000 kPa, x1 = 0.2993	0.351
308.15 K, 10000 kPa, x1 = 0.349	0.378
308.15 K, 10000 kPa, x1 = 0.4013	0.398
308.15 K, 10000 kPa, x1 = 0.4504	0.409
308.15 K, 10000 kPa, x1 = 0.4992	0.413
308.15 K, 10000 kPa, x1 = 0.5505	0.409
308.15 K, 10000 kPa, x1 = 0.5987	0.399
308.15 K, 10000 kPa, x1 = 0.6996	0.353
308.15 K, 10000 kPa, x1 = 0.7496	0.319
308.15 K, 10000 kPa, x1 = 0.7993	0.278
308.15 K, 10000 kPa, x1 = 0.8513	0.226
308.15 K, 10000 kPa, x1 = 0.9003	0.163
308.15 K, 10000 kPa, x1 = 0.949	0.0911
